In patent publication US20180015051A1, “MODULATORS OF ALPHA-DICARBONYL DETOXIFICATION AND THEIR USE FOR THE TREATMENT OF DIABETIC PATHOLOGIES” (Buck Institute for Research on Aging, priority 2016, published 2018):

What was measured:
C. elegans [1] = assay: Touch assay (touch index, gentle touch); settings: glod-4, young adult stage; 66.7 pM in DMSO
Procedure: For feeding RNAi bacteria, synchronized L1 larvae were transferred to NGM plates containing 1 mM of isopropyl P-D-1- thiogalactopyranoside/IPTG (referred to as RNAi plates) seeded with 20× concentrated HT1115 bacteria (cultured overnight at 20° C. at 220 rpm), carrying desired plasmid for RNAi of a specific gene or bacteria carrying empty vector pL4440 as control and allowed to grow on plates for 48 h. For drug assays, synchronized L4 larvae were transferred to either 60 mm NGM plates (with or without IPTG), freshly seeded with 5×E. coli OP50-1 or 20× HT1115 RNAi bacteria. Before seeding, the desired drug (or vehicle control) was mixed with the bacteria. Final drug concentrations were calculated considering the total volume of media and bacteria seeded on the NGM plates.
Briefly, each animal was touched alternately in the head region and in the tail with an eyelash. Typically, an omega turn or diversion in head direction resulting from anterior touch was counted as a positive response. Posterior touch response (not counted towards positive response) functioned towards resetting of the response to anterior touch. Touch index (TI) scores were generated by dividing the total number of positive responses over the […] per animal.
Synchronized glod-4 L1 animals were cultured on NGM agar plates seeded with E. coli OP50-1 until L4. […] Post-transfer into wells, animals were fed OP50-1 bacteria ad libitum while incubating at 20° C. on a rocker for 12 h. DMSO was used as control. Post-incubation with drug or DMSO, animals were transferred from wells onto NGM agar plates seeded with OP50-1 bacteria. Touch assay was performed on individual animal and touch index (TI) was calculated for each compound from the library as mentioned earlier.

C. elegans [2] = assay: Lifespan assay (survival curves); assay type: in vivo, Caenorhabditis elegans; settings: glod-4 mutant animals; PA, LA, or UMP (20 pM) vs EtOH control
Procedure: Life span assays were performed in Thermo Scientific Precision incubators at 20° C. After alkaline hypochlorite treatment, synchronized L1 animals were either placed onto NGM plates seeded with 5× concentrated E. coli OP50-1 (cultured on Lysogeny Broth/LB overnight) or on RNAi plates supplemented with 20×HT1115 RNAi bacteria. Post-L4 stage of development, all lifespan assays were performed using FUdR (5-fluoro-2 deoxyuridine) plates to inhibit development and growth of progeny. Every two days, animals were transferred on to new 60 mm NGM or RNAi plates freshly seeded with OP50-1 or HT1115 bacteria (with or without drug), respectively. 90-120 animals were considered for each lifespan experiment. Animal viability was assessed visually or with gentle prodding on the head. Animals were censored in the event of internal hatching of the larvae, body rupture, or crawling of larvae from the plates.

SKN-1/Nrf2 = assay: SKN-1 activation assay (GFP reporters for SKN-1, gst-4, gcs-1; qPCR); assay type: in vivo, Caenorhabditis elegans; settings: gst-4p::gfp animals on EV or glod-4 RNAi; PA, LA, or UMP (20 pM)
Procedure: Adult animals were examined for SKN-1/Nrf2 activation using GFP reporters for both SKN-1 and SKN-1 target genes: gst-4 and gcs-1. For exogenous MGO and drug assays, age-synchronized GFP reporter strains were subject to control and treatment conditions for a period of 4-6 hours before microscopy. For RNAi-induced activation studies, GFP reporter strains were fed on HT1115 bacteria expressing empty vector pL4440 or RNAi gene from L1 stage. Synchronized day 1 adult animals were then subjected to microscopic examination. Activation of SKN-1 using SKN-1 fusion reporter was determined as described earlier (An et al. (2003) Genes & Dev. 17: 1882-1893; Onken and Driscoll (2010) PloS One, 5: e8758). Scoring for downstream SKN-1 targets carrying GFP reporter for gcs-1 promoter was performed based on a previous study (Wang et al. (2010) PLoS Genetics, doi. org/10.1371/journal.pgen.1001048) and categorized as follows: ‘high’ for strong GFP signal throughout the intestine, ‘medium’ for GFP signal in the anterior or posterior section of the intestine and ‘low’ for weak or no signal. For animals with gst-4 promoters carrying GFP reporters number of GST-4 positive foci was counted under different conditions as described previously (Fensgardet al. (2010) Aging, 2: 133-159). Quantification of acquired images was done using the Image J™ software (//imagej.nih.gov/ij/).
Total RNA was extracted from nearly 100 age-synchronized adult animals picked and collected in 20 pl of M9 buffer using TRIzol reagent (Life Technologies, CA). Subsequently, 1 pg total RNA was used as template for cDNA synthesis. cDNA was synthesized using the ISCRIPT™ cDNA synthesis kit (Bio-Rad, CA) following manufacturer's protocol. qRT-PCR was carried out using the SensiFAST SYBR No-ROX kit (Bioline, MA) in a LightCycler 480 Real-Time PCR system (Roche Diagnostics Corp., IN). Quantification was performed using the comparative AACt method and normalization for internal reference was done using actin gene act-1.

glod-4 animals = assay: LC-MS/MS estimation of a-DC levels (MGO, GO) in worms; assay type: in vivo, Caenorhabditis elegans; settings: glod-4, PA
Procedure: Worms were cultured on NGM agar plates as explained before for lifespan experiments with some modifications: ˜100 animals/60 mm plates were used for each experimental replicate and animals were harvested at day 4 of adulthood with 20 pL M9 buffer in 1.5 mL eppendorf tubes. Worm suspensions were flash-frozen over liquid nitrogen and subsequently homogenized ultrasonically using a Fisher Scientific's 550 Sonic Dismembrator with 80 pL of sodium formate buffer (pH=3) containing 75 pM of 2,3-hexanedione (internal standard, IS). Two 20 s pulses at amplitude setting 4 of the instrument (on ice) were sufficient to completely homogenize worm bodies. To each homogenate tube 20 pL of 100 mg/mL o-phenelynediamine (OPD) solution in sodium formate buffer (pH=3) were added, and the mixture was allowed to react in dark at room temperature for ˜22 h. The long reaction time and the pH are critical parameters in this protocol: first to ensure complete derivatization of a-DCs bound reversibly to protein/glutathione —SHs; and second to prevent in vitro a-DC generation from glycolytic intermediates (DHAP, GAP, etc.) or due to DNA breakdown (Chaplen et al. (1998) Proc. Natl. Acad. Sci. USA, 95: 5533-5538). At the end of the stipulated reaction window, 12 pL of 5 M perchloric acid was added to each tube and incubated on ice for 30 min to ensure complete protein precipitation. Subsequently, the tubes were centrifuged at 10,000 rpm for 10 min, and the supernatant collected and neutralized with 30 pL 4 M NH4OH solution.
Optimization of analyte-specific MRM transitions, such as determination of suitable precursor and product ions and optimal MS parameters for each transition (Q1, precursor→Q3, product) were achieved by isocratic flow injection of the 10 pM solution (final) for each standard- or IS-OPD derivatives. The most intense (Q1→Q3) transition was used as quantifier, whereas the next best transition was used as qualifier for each compound (Table 4). For LC separation, a solvent gradient of 0.1% acetic acid in water (aqueous) - methanol (organic) was used with 0.4 mL/min flow rate, starting with an […] content of 3% for 0.7 min, which was increased to 100% over 6 min and held at 100% for 1.5 min. The LC column was subsequently reconstituted to its initial condition (methanol content of 3%) over the next 0.5 min and re-equilibrated for 3 min.
Derivatized metabolome extracts, as well as synthetic a-DCs were analyzed by scheduled LC-MRM in positive ion mode. To develop the scheduled LC-MRM method, MS/MS data was collected for all transitions across the length of each LC run for a mixture of synthetic GO-, MGO-, 3DG-, and 2,3-hexanedione (IS)-OPD derivatives (1 pL injection of 1 pM final concentration). Source conditions were as follows: curtain gas (CUR) 20, nebulizer gas (GS1) 60, auxiliary gas (GS2) 50, ionspray voltage (IS) 4500 V, and source temperature (TEM) 450° C. This step was undertaken to ascertain the LC retention times (RT) for the OPD derivatives. Several such sets were acquired to compute analyte-specific variability in RTs. Next, the MS was switched to operate in scheduled MRM mode, whereby the mass spectrometer acquired data for specific MRM transitions ±45 s around the computed RT for the analyte (Table 4). Relative quantification of GO, MGO, and 3DG were based on integration of corresponding OPD derivative-specific quantifier peaks obtained from scheduled LC-MRM runs (peak areas) and adjusted to the number of animals. To account for OPD derivatization efficiencies in individual tubes, sample-to-sample variability in MS response, and differential sample dilutions (both for synthetic a-DCs as well as a-DCs in worm homogenates), the peak areas were normalized to the quantifier peak area for IS-OPD for each sample.

TRPA1 (worm) = target: T1, TRPA1 (worm) (Caenorhabditis elegans, UniProt Q18297); assay: Calcium imaging of HEK293T cells (Rhod-3 AM), worm TRPA1; assay type: cell-based, C. elegans; settings: HEK293 cells transfected with worm TRPA1 and GFP; 100 pM AITC
T1 construct: expressed in transfected cells; host or cells: HEK293T
T1 sequence (Q18297 1-1211): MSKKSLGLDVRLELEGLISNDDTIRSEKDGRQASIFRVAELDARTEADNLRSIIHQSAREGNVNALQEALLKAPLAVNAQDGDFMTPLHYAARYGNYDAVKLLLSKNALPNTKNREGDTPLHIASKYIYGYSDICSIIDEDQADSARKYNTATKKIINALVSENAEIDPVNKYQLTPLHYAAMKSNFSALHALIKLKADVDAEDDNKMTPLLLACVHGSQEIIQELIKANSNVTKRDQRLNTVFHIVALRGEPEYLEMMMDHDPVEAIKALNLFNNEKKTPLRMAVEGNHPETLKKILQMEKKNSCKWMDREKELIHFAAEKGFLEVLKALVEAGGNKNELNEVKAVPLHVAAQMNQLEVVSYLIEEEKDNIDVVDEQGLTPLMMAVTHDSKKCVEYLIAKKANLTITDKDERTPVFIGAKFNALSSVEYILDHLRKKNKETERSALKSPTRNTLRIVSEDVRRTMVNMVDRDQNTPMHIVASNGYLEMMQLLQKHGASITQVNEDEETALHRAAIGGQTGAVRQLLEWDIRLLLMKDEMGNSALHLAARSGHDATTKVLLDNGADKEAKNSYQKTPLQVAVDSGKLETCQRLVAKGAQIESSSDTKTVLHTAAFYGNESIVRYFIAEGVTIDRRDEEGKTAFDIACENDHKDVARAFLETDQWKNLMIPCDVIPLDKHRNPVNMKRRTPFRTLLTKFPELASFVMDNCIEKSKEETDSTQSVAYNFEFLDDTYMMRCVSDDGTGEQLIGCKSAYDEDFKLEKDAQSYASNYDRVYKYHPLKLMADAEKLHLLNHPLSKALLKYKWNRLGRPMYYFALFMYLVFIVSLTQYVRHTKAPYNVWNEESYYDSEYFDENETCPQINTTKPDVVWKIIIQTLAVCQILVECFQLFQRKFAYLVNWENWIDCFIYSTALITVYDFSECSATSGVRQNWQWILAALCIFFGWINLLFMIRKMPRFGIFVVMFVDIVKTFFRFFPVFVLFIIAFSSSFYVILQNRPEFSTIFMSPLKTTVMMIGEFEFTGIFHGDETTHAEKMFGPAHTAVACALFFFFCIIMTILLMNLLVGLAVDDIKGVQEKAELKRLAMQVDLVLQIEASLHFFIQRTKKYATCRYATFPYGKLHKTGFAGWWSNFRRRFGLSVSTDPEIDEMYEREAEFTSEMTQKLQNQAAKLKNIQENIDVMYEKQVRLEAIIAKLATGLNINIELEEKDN
Procedure: (§1) Appropriate HEK293T-derived cells were seeded on collagen-coated glass bottom culture dishes (MatTek Corporation). Cells were loaded with 10 pM of Rhod-3 AM (Life Technology) for 30 min at 37° C. After 30 min they were washed twice with standard Tyrode's solution (135 mM NaCl, 4 mM KCl, 10 mM glucose, 10 mM HEPES, 2 mM CaCl2, and 1 mM MgCl2 at pH=7.4) at room temperature. Calcium imaging was performed on an Olympus BX51WI Axiovert microscope under a 60× objective. Fluorescent images were documented upon sequential excitation with 555 nm followed by 484 nm with a Roper CoolSnap CCD camera. After establishing a baseline 555/484 ratio, methylglyoxal or other agonists were diluted with Tyrode's solution (100 pM or 1 mM final concentration) and were perfused into cells. Images were processed with the MetaFlour (Olympus) software.

TRPA1 (RAT) = target: T2, TRPA1 (RAT) (Rattus norvegicus, UniProt Q6RI86); settings: stated as known; cited from earlier work
T2 construct: expressed in transfected cells; host or cells: HEK293T
T2 sequence (Q6RI86 whole entry): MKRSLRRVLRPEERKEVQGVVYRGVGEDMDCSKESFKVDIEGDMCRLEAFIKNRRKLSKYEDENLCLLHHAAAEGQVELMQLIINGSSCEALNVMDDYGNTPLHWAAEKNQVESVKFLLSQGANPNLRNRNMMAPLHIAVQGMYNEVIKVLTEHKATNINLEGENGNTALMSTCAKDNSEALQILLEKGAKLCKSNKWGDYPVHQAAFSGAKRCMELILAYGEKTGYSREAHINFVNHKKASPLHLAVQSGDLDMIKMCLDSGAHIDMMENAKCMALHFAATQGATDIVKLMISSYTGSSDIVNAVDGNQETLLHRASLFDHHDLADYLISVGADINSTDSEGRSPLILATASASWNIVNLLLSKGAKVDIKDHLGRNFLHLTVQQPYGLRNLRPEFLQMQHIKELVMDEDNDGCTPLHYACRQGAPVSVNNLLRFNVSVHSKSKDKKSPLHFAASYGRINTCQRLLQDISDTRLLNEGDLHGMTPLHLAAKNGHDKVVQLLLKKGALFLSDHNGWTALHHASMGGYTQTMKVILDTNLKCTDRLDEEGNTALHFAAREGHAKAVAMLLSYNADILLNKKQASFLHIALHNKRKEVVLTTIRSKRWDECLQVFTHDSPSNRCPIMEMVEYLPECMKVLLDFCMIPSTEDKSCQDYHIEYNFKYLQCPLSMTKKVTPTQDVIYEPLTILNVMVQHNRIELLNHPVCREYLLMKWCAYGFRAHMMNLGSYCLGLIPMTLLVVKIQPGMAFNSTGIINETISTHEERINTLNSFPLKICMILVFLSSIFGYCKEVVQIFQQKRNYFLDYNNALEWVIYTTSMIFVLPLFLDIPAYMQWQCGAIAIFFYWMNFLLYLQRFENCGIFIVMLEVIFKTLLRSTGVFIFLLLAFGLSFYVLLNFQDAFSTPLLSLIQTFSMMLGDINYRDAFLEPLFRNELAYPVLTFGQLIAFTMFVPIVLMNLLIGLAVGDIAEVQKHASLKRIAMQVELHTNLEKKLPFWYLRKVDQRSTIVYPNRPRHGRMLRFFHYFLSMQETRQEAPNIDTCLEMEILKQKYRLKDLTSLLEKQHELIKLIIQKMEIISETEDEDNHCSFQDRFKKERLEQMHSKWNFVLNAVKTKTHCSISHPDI

TRPM8 (mouse) = target: T3, TRPM8 (mouse) (Mus musculus, UniProt Q8R4D5); assay: Calcium imaging of HEK293T cells (Rhod-3 AM), mouse TRPM8; assay type: cell-based; settings: HEK293T transfected with mouse TRPM8 and GFP; 100 pM MGO then 100 pM menthol
T3 construct: expressed in transfected cells; host or cells: HEK293T
T3 sequence (Q8R4D5 whole entry): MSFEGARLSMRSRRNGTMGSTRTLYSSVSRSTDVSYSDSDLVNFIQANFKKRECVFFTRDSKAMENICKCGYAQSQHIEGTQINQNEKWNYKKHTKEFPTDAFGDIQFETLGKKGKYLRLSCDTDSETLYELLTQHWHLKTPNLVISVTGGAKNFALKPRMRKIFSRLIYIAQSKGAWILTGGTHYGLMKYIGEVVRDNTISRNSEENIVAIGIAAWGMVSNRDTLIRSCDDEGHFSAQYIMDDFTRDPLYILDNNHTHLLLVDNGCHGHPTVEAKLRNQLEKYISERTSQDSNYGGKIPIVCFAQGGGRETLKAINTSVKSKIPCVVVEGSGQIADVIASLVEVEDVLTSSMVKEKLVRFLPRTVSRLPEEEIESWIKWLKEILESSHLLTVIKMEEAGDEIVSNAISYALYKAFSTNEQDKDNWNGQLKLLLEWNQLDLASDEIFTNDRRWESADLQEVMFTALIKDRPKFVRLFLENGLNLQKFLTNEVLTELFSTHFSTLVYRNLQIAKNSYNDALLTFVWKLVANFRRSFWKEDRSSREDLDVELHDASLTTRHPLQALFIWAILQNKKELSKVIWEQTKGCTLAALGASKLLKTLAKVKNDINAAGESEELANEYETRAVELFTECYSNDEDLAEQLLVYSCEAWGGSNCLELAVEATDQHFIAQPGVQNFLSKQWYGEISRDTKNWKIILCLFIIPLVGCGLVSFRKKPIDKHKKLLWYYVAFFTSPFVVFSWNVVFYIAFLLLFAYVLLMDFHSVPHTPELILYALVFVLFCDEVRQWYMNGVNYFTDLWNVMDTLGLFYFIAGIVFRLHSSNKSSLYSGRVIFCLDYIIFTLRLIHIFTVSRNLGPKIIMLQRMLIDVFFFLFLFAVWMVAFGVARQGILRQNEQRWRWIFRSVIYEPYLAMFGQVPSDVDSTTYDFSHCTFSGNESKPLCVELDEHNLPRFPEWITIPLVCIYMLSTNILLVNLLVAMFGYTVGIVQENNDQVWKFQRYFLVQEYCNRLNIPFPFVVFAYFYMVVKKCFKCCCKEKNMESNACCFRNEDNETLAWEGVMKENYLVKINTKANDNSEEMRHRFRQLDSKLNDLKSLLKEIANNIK
Procedure: as §1

native HEK293T cells = assay: Calcium imaging of native HEK293T cells (GFP only); assay type: cell-based
Procedure: as §1

O=c1ccn([C@@H]2O[C@H](COP(=O)(O)O)[C@@H](O)[C@H]2O)c(=O)[nH]1 [UMP, Uridine monophosphate]
Touch sensitivity (touch index) in drug screen of TimTec NPL640 (C. elegans [1]): reduced touch sensitivity
Lifespan / early mortality (survival curves) (C. elegans [2]): does not ameliorate
SKN-1 activation (GFP foci in gst-4p::gfp) (SKN-1/Nrf2): nor does it activate SKN-1
Levels of GO (glod-4 animals; LA, or UMP (20 pM each) vs EtOH control): does not ameliorate
Levels of MGO (glod-4 animals; LA, or UMP (20 pM) vs EtOH control): does not ameliorate

C=CCN=C=S [AITC, allyl isothiocyanate]
Activation of worm TRPA1 channel (Ca2+ flux, Rhod-3 AM) (TRPA1 (worm)): failed to activate
Activation of mammalian TRPA1 (TRPA1 (RAT)): known to activate

CC1CCC(C(C)C)C(O)C1 (stereo not drawn) [menthol]
Ca2+ flux through the TRPM8 channel (Rhod-3 AM) (TRPM8 (mouse)): triggers a Ca^+2 flux
Ca2+ flux in native HEK293T cells (Rhod-3 AM) (native HEK293T cells): neither compounds resulted in Ca^+2 flux
